Earlier results in US7060710B2, “Isoxazole pyrazoloindane derivatives as cognition enhancing GABAA α5 subtype ligands” (Merck Sharp & Dohme Ltd., priority 2001, dated 2006).

Assays:
[1] = background statement
[2] = reported by McNamara and Skelton

COC(=O)c1cc2c(cn1)[nH]c1ccccc12 [β-CCM]
proconvulsant activity [1]: proconvulsant
spatial learning in the Morris watermaze [2]: enhanced spatial learning
